# Measurements taken from patent publication US11236085B2, “PD-1/PD-L1 inhibitors” (Gilead Sciences, Inc., priority 2018, dated 2022).
# Tests used:
# PD-1/PD-L1 [1] = molecular target: T1, PD-1/PD-L1 (Homo sapiens, UniProt Q9NZQ7); assay: PD-1/PD-L1 biochemical protein-protein interaction assay (ALPHA); format: binding; conditions: 0.3 nM His tagged PD-L1, 2.5 nM biotinylated Fc-PD-1; 60 minutes at 25° C.; read-out: IC50 PD-L1-PD1
# Protocol: PD-1/PD-L1 & CTLA/CD80 Biochemical Protein-Protein Interaction Assay
# Compounds were tested in biochemical protein-protein interaction assays to determine if they can specifically block the interaction between the extracellular domains of PD-1/PD-L1 or CTLA/CD80. Binding of the protein pairs is measured using a bead based Amplified Luminescent Proximity Homogeneous Assay (ALPHA) platform. Binding of each protein pair results in proximity of the donor and acceptor beads which leads to an increase in ALPHA signal. Disruption of the protein-protein interaction with a test compound results in a decrease in ALPHA signal. Assays are performed in 25 mM Hepes (pH 7.4), 150 mM NaCl, 3.4 mM EDTA, 0.005% Tween 20, and 0.01% BSA. Final protein concentration in the assays were 0.3 nM (His tagged PD-L1), 2.5 nM (biotinylated Fc-PD-1), 1 nM (His tagged CTLA4) and 1 nM (biotinylated CD80). After an assay reaction time of 60 minutes at 25° C., binding was measured with addition of 20 μg/mL ALPHA assay acceptor beads (anti-His coated) and 20 µg/mL ALPHA assay donor beads (streptavidin coated). IC50 values were calculated from the fit of the dose-response curves to a four-parameter equation. Representative data are shown below in Table 3.
# Target sequence in this assay (Q9NZQ7 19-238 limits assumed): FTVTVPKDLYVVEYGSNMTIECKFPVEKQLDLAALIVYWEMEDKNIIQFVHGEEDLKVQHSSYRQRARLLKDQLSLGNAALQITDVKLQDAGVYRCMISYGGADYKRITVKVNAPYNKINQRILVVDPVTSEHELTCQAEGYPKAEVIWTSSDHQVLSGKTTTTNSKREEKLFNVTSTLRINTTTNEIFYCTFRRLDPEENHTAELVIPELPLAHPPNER
# PD-L1 = molecular target: T2, PD-L1 (Homo sapiens, UniProt Q9NZQ7); assay: PD-L1/PD-L1 dimerization biochemical protein-protein interaction assay (ALPHA); conditions: 0.5 nM His tagged PD-L1 and 0.5 nM FLAG tagged PD-L1; compound induced dimerization; read-out: AC50 PDL1 Dimer 1 nM
# T2 construct: determine if they can specifically dimerize the extracellular domains of PD-L1
# T2 sequence (Q9NZQ7 19-238 limits assumed): as above
# T2 sequence (Q9NZQ7 19-238 limits assumed): as above
# Protocol: PD-L1/PD-L1 Dimerization Biochemical Protein-Protein Interaction Assay
# Compounds were tested in biochemical protein-protein interaction assays to determine if they can specifically dimerize the extracellular domains of PD-L1. Dimerization of the proteins (His-tagged PD-L1 and FLAG-tagged PD-L1) is measured using a bead based Amplified Luminescent Proximity Homogeneous Assay (ALPHA) platform. […] Assays are performed in 25 mM Hepes (pH 7.4), 150 mM NaCl, 3.4 mM EDTA, 0.005% Tween 20, and 0.01% BSA. Final protein concentration in the assays were 0.5 nM (His tagged PD-L1) and 0.5 nM (FLAG tagged PD-L1). After an assay reaction time of 2 hours at 25° C., 20 μg/mL (final assay concentration) ALPHA assay acceptor beads (anti-His coated) were added and incubated for 60 minutes at 25° C. Binding was measured following a final 60 minute incubation with 40 μg/mL (final assay concentration) ALPHA assay donor beads (anti-FLAG coated). AC50 values were calculated from the fit of the dose-response curves to a four-parameter equation (Table 4).
# PD-1/PD-L1 [2] = molecular target: T1, PD-1/PD-L1; assay: PD-1/PD-L1 NFAT reporter assay (co-culture of aAPC-PD-L1 CHO cells and Jurkat cells overexpressing PD-1, NFAT luciferase); format: cell-based; set-up: expressed in transfected cells; host or cells: CHO cells (aAPC-PD-L1) co-cultured with Jurkat cells overexpressing PD-1; conditions: co-culture incubated for 6 hrs at 37° C.; luciferase under NFAT control
# Protocol: PD-1/PD-L1 NFAT Reporter Assay
# Compounds were tested in a functional co-culture reporter assay in which TCR-mediated NFAT activity is inhibited by the engagement of PD-1 with PD-L1. […] CHO cells expressing surface-bound anti-CD3 antibodies and PD-L1 (artificial antigen presenting cells, aAPC-PD-L1) were first seeded overnight. Jurkat cells overexpressing PD-1 and expressing a luciferase construct under NFAT control are diluted in RPMI assay medium (RPMI 1640 with 2% FBS), mixed with compounds, and immediately seeded on the monolayer of aAPC-PD-L1. The co-culture is then incubated for 6 hrs at 37° C. Luciferase activity is assessed by adding the ONE-Glo reagent and measuring luminescence with a plate reader. EC50 values are calculated from the fit of the dose-response curves to a four-parameter equation (Table 4).
# Target sequence in this assay (Q9NZQ7 19-290): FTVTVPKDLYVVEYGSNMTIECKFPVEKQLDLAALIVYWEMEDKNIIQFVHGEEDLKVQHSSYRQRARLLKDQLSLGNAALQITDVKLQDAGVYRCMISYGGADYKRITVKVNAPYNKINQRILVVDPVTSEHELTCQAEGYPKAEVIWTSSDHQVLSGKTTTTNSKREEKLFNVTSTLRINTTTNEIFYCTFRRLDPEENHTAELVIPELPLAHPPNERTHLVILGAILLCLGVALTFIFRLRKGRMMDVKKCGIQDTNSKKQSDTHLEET
Compound,IC50 (PD-1/PD-L1 [1]) [nM],AC50 (PD-L1) [nM],EC50 (PD-1/PD-L1 [2]) [nM]
Cc1c(COc2cc(OCc3cncc(C#N)c3)c(CN[C@@](C)(CO)C(=O)O)cc2Cl)cccc1-c1cccc(-c2ccc3c(c2)C2CCC(C3)N2)c1C (stereo partly drawn) [Compound 24],0.086,41.3,184
COc1nc(-c2cccc(-c3cccc(-c4cc5c(s4)CCNC5)c3Cl)c2Cl)ccc1CN1CC2(CCC(=O)N2)C1 [Compound 32],1.14,181,288
COc1nc(-c2cccc(-c3cccc(-c4cc5c(cn4)CNC5)c3Cl)c2Cl)ccc1CNC[C@@H]1CCC(=O)N1 [Compound 23],0.318,272,202
"COc1nc(O[C@H]2CCc3c(-c4cccc(-c5nc6c(s5)CCNC6)c4Cl)cccc32)c(C(F)(F)F)cc1CN1CC[C@@H](C(=O)O)C1 [Compound 2, (R)-1-((6-(((S)-4-(2-chloro-3-(4,5,6,7-tetrahydrothiazolo[4,5-c]pyridin-2-yl)phenyl)-2,3-dihydro-1H-inden-1-yl)oxy)-2-methoxy-5-(trifluoromethyl)pyridin-3-yl)methyl)pyrrolidine-3-carboxylic acid]",0.064,23,3250
Cc1c(COc2cc(OCc3cncc(C#N)c3)c(CN[C@@](C)(CO)C(=O)O)cc2Cl)cccc1-c1cccc(-c2ccc3c(c2)CNCC3NC(=O)NC2CC2)c1C (stereo partly drawn) [Compound 14],0.064,10.7,69
COc1nc(-c2cccc(-c3cccc(-c4cc5c(s4)CCNC5)c3Cl)c2Cl)ccc1CNC[C@@H]1CCC(=O)N1 [Compound 33],1.04,145,170
COc1nc(-c2cccc(-c3cccc(-c4nc5c(s4)CCNC5)c3Cl)c2Cl)ccc1CNC[C@@H]1CCC(=O)N1 [Compound 36],0.588,256,142
Cc1c(COc2cc(OCCCC#N)c(CN[C@@](C)(CO)C(=O)O)cc2Cl)cccc1-c1cccc(-c2ccc3c(c2)CNCC3)c1C [Compound 9],0.126,63.8,173
CNC(=O)NC1CNCc2cc(-c3cccc(-c4cccc(COc5cc(OCc6cncc(C#N)c6)c(CNC[C@@H](O)CC(=O)O)cc5Cl)c4C)c3C)ccc21 (stereo partly drawn) [Compound 20],0.064,20.8,95
COc1nc(-c2cccc(-c3cccc(-c4nc5c(s4)CNCC5)c3Cl)c2Cl)ccc1CNCCO [Compound 31],0.431,314,674
COc1nc(-c2cccc(-c3cccc(-c4nc5n(n4)CCNC5)c3Cl)c2Cl)ccc1CNC[C@@H]1CCC(=O)N1 [Compound 30],0.247,690,148
COc1nc(-c2cccc(-c3cccc(-c4ccc5c(c4)OCCNC5)c3Cl)c2Cl)ccc1CNC[C@@H](O)CC(=O)O [Compound 6],0.427,301,170
Cc1c(COc2cc(OCc3cncc(C#N)c3)c(CN[C@@](C)(CO)C(=O)O)cc2Cl)cccc1-c1cccc(-c2ccc3c(c2)CNCC3)c1C [Compound 5],0.136,57,134
C[C@@](CO)(NCc1cc(Br)c(OCc2cccc(-c3cccc(-c4ccc5c(c4)CNCC5)c3Cl)c2Cl)nc1OCc1cncc(C#N)c1)C(=O)O [Compound 22],0.151,37.7,87
Cc1c(COc2cc(OCc3cncc(C#N)c3)c(CNC[C@@H](O)CC(=O)O)cc2Cl)cccc1-c1cccc(-c2ccc3c(c2)CNCC3NC(=O)NCC#N)c1C (stereo partly drawn) [Compound 17],0.174,31.6,128
Cc1c(COc2cc(OCc3cncc(C#N)c3)c(CN[C@@](C)(CO)C(=O)O)cc2Cl)cccc1-c1cccc(-c2ccc3c(c2)CNCC3NC(=O)NCC#N)c1C (stereo partly drawn) [Compound 16],0.09,30.9,102

# Further lines, results first:
IC50 (PD-1/PD-L1 [1]) [nM],AC50 (PD-L1) [nM],EC50 (PD-1/PD-L1 [2]) [nM],Compound
0.814,281,105,COc1nc(-c2cccc(-c3cccc(-c4nc5c(s4)CNCC5)c3Cl)c2Cl)ccc1CNC[C@@H]1CCC(=O)N1 [Compound 35]
0.368,31.5,200,C[C@](CO)(NCc1cc(Cl)c(OCc2cccc(-c3cccc(-c4ccc5c(c4)CNCC5)c3Cl)c2Cl)nc1OCc1cncc(C#N)c1)C(=O)O [Compound 29]
0.23,28.3,166,C[C@](CO)(NCc1cc(Br)c(OCc2cccc(-c3cccc(-c4ccc5c(c4)CNCC5)c3Cl)c2Cl)nc1OCc1cncc(C#N)c1)C(=O)O [Compound 21]
0.686,599,178,Cc1c(COc2cc(OCc3cncc(C#N)c3)c(CNC[C@@H](O)CC(=O)O)cc2Cl)cccc1-c1cccc(-c2ccc3c(c2)NC(=O)CNC3)c1C [Compound 11]
0.064,76.9,123,Cc1c(COc2cc(OCc3cncc(C#N)c3)c(CN[C@@](C)(CO)C(=O)O)cc2Cl)cccc1-c1cccc(-c2ccc3c(c2)CNCC3O)c1C (stereo partly drawn) [Compound 3]
0.064,7.47,59,CNC(=O)N[C@@H]1CNCc2cc(-c3cccc(-c4cccc(COc5cc(OCc6cncc(C#N)c6)c(CN[C@@](C)(CO)C(=O)O)cc5Cl)c4C)c3C)ccc21 [Compound 15]
0.147,26.9,90,Cc1c(COc2cc(OCc3cncc(C#N)c3)c(CNC[C@@H](O)CC(=O)O)cc2Cl)cccc1-c1cccc(-c2ccc3c(c2)CNCC3NC(=O)NC2CC2)c1C (stereo partly drawn) [Compound 13]
0.187,249,103,Cc1c(COc2cc(OCc3cncc(C#N)c3)c(CN[C@@](C)(CO)C(=O)O)cc2Cl)cccc1-c1cccc(-c2ccc3c(c2)NC(=O)CNC3)c1C [Compound 10]
0.064,48.9,174,CC(=O)NCC1Cc2ccc(-c3cccc(-c4cccc(COc5cc(OCc6cncc(C#N)c6)c(CN[C@@](C)(CO)C(=O)O)cc5Cl)c4C)c3C)cc2CN1 (stereo partly drawn) [Compound 26]
0.17,55.3,165,CNC(=O)NC1CNCc2cc(-c3cccc(-c4cccc(-c5ccc(CNC[C@@H]6CCC(=O)N6)c(OC)n5)c4Cl)c3Cl)ccc21 (stereo partly drawn) [Compound 12]
0.955,75,142,Cc1c(COc2cc(OCc3cc(Cl)cc(C#N)c3)c(CN[C@@](C)(CO)C(=O)O)cc2Cl)cccc1-c1cccc(-c2ccc3c(c2)CNCC3)c1C [Compound 7]
0.064,53.5,108,Cc1c(COc2nc(OCc3cncc(C#N)c3)c(CN[C@@](C)(CO)C(=O)O)cc2Cl)cccc1-c1cccc(-c2ccc3c(c2)CNC(COC(=O)NCCO)C3)c1C (stereo partly drawn) [Compound 25]
1.13,174,163,COc1nc(-c2cccc(-c3cccc(-c4cc5c(s4)CNCC5)c3Cl)c2Cl)ccc1CNC[C@@H]1CCC(=O)N1 [Compound 34]
0.064,86.5,90,Cc1c(COc2cc(OCc3cncc(C#N)c3)c(CN[C@@](C)(CO)C(=O)O)cc2Cl)cccc1-c1cccc(-c2ccc3c(c2)NCCNC3)c1C [Compound 4]
0.293,42.9,90,Cc1c(COc2cc(OCc3cc(C#N)cc(C#N)c3)c(CN[C@@](C)(CO)C(=O)O)cc2Cl)cccc1-c1cccc(-c2ccc3c(c2)CNCC3)c1C [Compound 8]
